From PMC9897032, “How Many Sirtuin Genes Are Out There? Evolution of Sirtuin Genes in Vertebrates With a Description of a New Family Member” (Molecular Biology and Evolution, 2023)

Biological target: T1, human SIRT3 (Homo sapiens, UniProt Q9NTG7)
T1 construct: recombinant enzyme supplied with Abcam fluorometric SIRT3 activity kit
T1 sequence (Q9NTG7 102-399): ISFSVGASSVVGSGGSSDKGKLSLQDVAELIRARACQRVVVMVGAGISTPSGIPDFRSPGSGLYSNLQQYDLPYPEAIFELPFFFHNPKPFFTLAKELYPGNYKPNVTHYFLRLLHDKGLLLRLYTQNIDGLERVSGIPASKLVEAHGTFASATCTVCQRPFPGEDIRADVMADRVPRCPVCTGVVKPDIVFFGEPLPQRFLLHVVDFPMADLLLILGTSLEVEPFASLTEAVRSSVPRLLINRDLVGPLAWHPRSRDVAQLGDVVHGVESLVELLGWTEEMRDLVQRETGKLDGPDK
Test: fluorometric deacetylation assay, acetylated substrate peptide (Abcam ab156067)
Format: biochemical
Conditions: activator; 37 °C; NAD+ dependent assay

Oc1ccc(/C=C/c2cc(O)cc(O)c2)cc1 [REV, resveratrol]
fold increase in activity at 100 μM: 1.6 ± 0.1 fold
